The target in assay [1] is T1, human SPPL2a (Homo sapiens, UniProt Q8TCT8).
T1 sequence (Q8TCT8 26-520): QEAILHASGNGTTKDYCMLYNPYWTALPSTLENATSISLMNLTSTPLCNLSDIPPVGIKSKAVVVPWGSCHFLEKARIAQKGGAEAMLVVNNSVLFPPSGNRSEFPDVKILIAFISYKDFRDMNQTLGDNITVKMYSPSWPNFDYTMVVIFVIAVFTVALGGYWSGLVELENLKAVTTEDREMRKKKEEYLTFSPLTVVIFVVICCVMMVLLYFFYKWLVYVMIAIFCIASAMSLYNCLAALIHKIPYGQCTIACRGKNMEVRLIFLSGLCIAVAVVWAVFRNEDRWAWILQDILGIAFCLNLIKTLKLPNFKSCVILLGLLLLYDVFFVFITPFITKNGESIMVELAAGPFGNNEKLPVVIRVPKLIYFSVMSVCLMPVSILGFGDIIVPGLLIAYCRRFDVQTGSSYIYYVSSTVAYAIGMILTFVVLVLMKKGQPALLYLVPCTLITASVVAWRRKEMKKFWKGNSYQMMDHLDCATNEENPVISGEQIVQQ
Nature of the assay: Sppl2a TL (translocation) imaging assay in U-2 OS cells. It is filed as cell-based. More on the design: expressed in transfected cells. The conditions noted are these: U-2 OS cells expressing human SPPL2a and EGFP-TNFα(aa1-76) NTF substrate; 24 h. The procedure: SPPL2a, TL in U-2 OS Cells. Stable U-2 OS cell lines expressing human SPPL2a constitutively and a EGFP-labeled TNFα(aa1-76) NTF substrate under a doxycycline-regulated promoter were used for the imaging assays. Cells were seeded at 3000 cells/30 μL/384-well in DMEM/GlutaMax™-I (Invitrogen) supplemented with tetracycline-free 10% FBS (Amimed) and incubated at 37° C., 5% CO2 for 3-4 h. Subsequently, 3.3 μL of inhibitors, prediluted in doxycycline-containing medium for 11-point concentration-response curves, were added to each well using a CyBi well liquid handling device (Cybio AG, Jena, Germany) to result in final inhibitor concentrations ranging from 100 μM to 1 nM (final DMSO concentration 0.9% (v/v)) and 5 μg/mL doxycycline). The cells were incubated with inhibitor at 37° C., 5% CO2 for 24 h. Thereafter cell were fixed in 4% PFA/PBS and in parallel, nuclei were stained with Hoechst (Invitrogen) 1:5000 in PBS for 30 min. The plates were imaged using a Cellomics ArrayScan VTI HCS reader with 10×/0.3NA objective (Thermo Fisher Scientific, USA). Six images per well were acquired. Images for the EGFP signal (Ex395, Em509) and the Hoechst nuclear dye (Ex350, Em425) were acquired simultaneously with image analysis using the “Nuclear Translocation” assay algorithm of the Cellomics ArrayScan software. Nuclei were detected based on the Hoechst staining, the nuclear mask was transferred to the EGFP channel, and a 4 pixel wide cytoplasm ring region was defined around the nucleus. The intensity of the EGFP signal was measured both in the nuclear and in the cytoplasm ring region of each individual cell (in general 800-1000 individual cells were analyzed per well), and the difference of the average nuclear versus average cytoplasmic intensity of the EGFP signal was calculated (“CircRingAvgIntenDiffCh2”=“CircAvgIntenCh2”−“RingAvgIntenCh2”). Additionally the number of cells were acquired (feature termed “ValidCellCount”) and used to calculate cell toxicity (CC50). Percent inhibition was calculated relative to the positive (0.5 μM LY-411,575=100% inhibition) and negative (DMSO=0% inhibition) controls. The IC50 value was calculated from the plot of percentage of inhibition vs inhibitor concentration using nonlinear regression analysis software, e.g., Origin (OriginLab Corp.).

Assay [2] concerns the target T1, human SPPL2a. Nature of the assay: Sppl2a RGA (reporter gene assay) in HEK293 cells. The arrangement: expressed in transfected cells; host or cells: HEK293 (transient). Conditions: NT-TNF-VP16-Gal4 substrate, Gal4-luciferase reporter, 24 h. It is filed as cell-based. From the text: Sppl2a RGA (Reporter Gene Assay):
Sppl2a is an intramembrane aspartyl protease with similarities to presenilin, the active subunit of the γ-secretase complex. The assay is based on the coupling of the proteolytic degradation of a membrane bound synthetic substrate (VP16-Gal4 fusion protein with the N-terminal domain of TNF alpha), which migrates to the nucleus upon cleavage, with the Gal4 driven expression of luciferase. Inhibition of Sppl2a results in a reduction of nuclear VP16-Gal4 activator and therefore in a reduction of the production of luciferase. The luciferase dependent-luminescence is plotted against the concentrations of compound to generate a dose response curve, which allows the calculation of the IC50 value.
DNA vectors encoding human Sppl2a, NT-TNF-VP16-Gal4 and a Gal4-luciferase reporter were transiently transfected in HEK293 cells. In a typical experiment 5 μg plasmid for SPPL2a, 10 μg plasmid encoding the reporter Gal4-luciferase and 20 μg plasmid encoding the substrate NT-TF-VP16-Gal4 were mixed together. The DNA mixture was combined with 107 μl FuGENE® (Promega), 735 μl Opti-MEM® (Life Technologies) and incubated for 5 minutes at RT. To this mixture 20 mL of concentrated HEK293 cells were added and thoroughly mixed. The cell suspension was distributed to a white solid 384 well plate. Within 5 hours, 50 nl of compound in DMSO was stamped into the wells via pintool. The plate was incubated for 24 h at 37° C., 5% CO2 in a humidified incubator, before the addition of 25 μl Bright Glo. After incubation at RT for 5 min, the plate was transferred to a luminometer and the luminescence was measured. The IC50 was determined by plotting compound concentration vs. normalized luminescence values.
Background: Reporter assays use an easily measured gene product as a stand-in for the process of interest.

Regarding `C[C@H](CNC(=O)c1ccnn1C)C(=O)N[C@@H]1C(=O)N2CCCN2Cc2ccccc21` [Example 61, 1-methyl-N-((R)-2-methyl-3-oxo-3-(((S)-11-oxo-2,3,10,11-tetrahydro-1H,5H-benzo[d]pyrazolo [1,2-a][1,2]diazepin-10-yl)amino)propyl)-1H-pyrazole-5-carboxamide], the results for the IC50 in assay [1] and in assay [2] were 686 nM and 691 nM, respectively.
As for `CC(C)NC(=O)c1cc(NC(=O)C[C@H](C(=O)N[C@@H]2C(=O)N3CCCN3Cc3ccccc32)C2CC2)n(C)n1` [Example 67, (S)-2-Cyclopropyl-N^4-(3-(isopropylcarba-moyl)-1-methyl-1H-pyrazol-5-yl)-N^1-((S)-11-oxo-2,3,10,11-tetrahydro-1H,5H-benzo[d]pyrazolo [1,2-a][1,2]diazepin-10-yl)succinamide], the IC50 (commonly the midpoint of a concentration-inhibition curve) in assay [1] is 2 nM; in assay [2], 5 nM.
The matching figures for `C[C@H](CC(=O)Nc1cc(NC(=O)C(F)(F)C(F)(F)F)nn1C)C(=O)N[C@@H]1C(=O)N2CCCN2Cc2ccccc21` [Example 70, (R)-2-Methyl-N^4-(1-methyl-3-(2,2,3,3,3-pentafluoropro-panamido)-1H-pyrazol-5-yl)-N^1-((S)-11-oxo-2,3,10,11-tetrahydro-1H,5H-benzo[d]pyrazolo [1,2-a][1,2]diazepin-10-yl)succinamide]: 4 nM and 13 nM.
For `C[C@H](CC(=O)Nc1cc(-c2cc(C3CC3)no2)nn1C)C(=O)N[C@@H]1C(=O)N2CCCN2Cc2ccccc21` [Example 71, (R)-N^4-(3-(3-Cyclopropylisoxa-zol-5-yl)-1-methyl-1H-pyrazol-5-yl)-2-methyl-N^1-((S)-11-oxo-2,3,10,11-tetrahydro-1H,5H-benzo[d]pyrazolo [1,2-a][1,2]diazepin-10-yl)succinamide], in that order: 4 nM and 4 nM.
Turning to `C[C@H](CC(=O)Nc1cc(-c2ccc(C(F)(F)F)nc2)nn1C)C(=O)N[C@@H]1C(=O)N2CCCN2Cc2ccccc21` [Example 72, (R)-2-Methyl-N^4-(1-methyl-3-(6-(trifluoromethyl)pyridin-3-yl)-1H-pyrazol-5-yl)-N^1-((S)-11-oxo-2,3,10,11-tetrahydro-1H,5H-benzo[d]pyrazolo [1,2-a][1,2]diazepin-10-yl)succinamide], the values for the IC50 in assay [1] and in assay [2] were 4 nM and 9 nM, respectively.
For `C[C@H](CC(=O)Nc1sc(-c2ccn(C)n2)nc1Cl)C(=O)N[C@@H]1C(=O)N2CCCN2Cc2ccccc21` [Example 73, (R)-N^4-(4-Chloro-2-(1-methyl-1H-pyrazol-3-yl)thiazol-5-yl)-2-methyl-N^1-((S)-11-oxo-2,3,10,11-tetrahydro-1H,5H-benzo[d]pyrazolo [1,2-a][1,2]diazepin-10-yl)succinamide], in that order: 4 nM and 25 nM.
For `Cc1cncc(-c2cc(NC(=O)C[C@@H](C)C(=O)N[C@@H]3C(=O)N4CCCN4Cc4ccccc43)n(C)n2)c1` [Example 74, (R)-2-Methyl-N^4-(1-methyl-3-(5-methylpyridin-3-yl)-1H-pyrazol-5-yl)-N^1-((S)-11-oxo-2,3,10,11-tetrahydro-1H,5H-benzo[d]pyrazolo [1,2-a][1,2]diazepin-10-yl)succinamide], in that order: 4 nM and 13 nM.
For `Cc1cncc(-c2cc(NC(=O)C[C@H](C(=O)N[C@@H]3C(=O)N4CCCN4Cc4ccccc43)C3CC3)n(C)n2)c1` [Example 75, (S)-2 Cyclopropyl-N^4-(1-methyl-3-(5-methylpyridin-3-yl)-1H-pyrazol-5-yl)-N^1-((S)-11-oxo-2,3,10,11-tetrahydro-1H,5H-benzo[d]pyrazolo [1,2-a][1,2]diazepin-10-yl)succinamide], in that order: 5 nM and 4 nM.
Consider `C[C@@H](CF)NC(=O)c1cc(NC(=O)C[C@H](C(=O)N[C@@H]2C(=O)N3CCCN3Cc3ccccc32)C2CC2)n(C)n1` [Example 78, (S)-2-Cyclopropyl-N^4-(3-(((S)-1-fluoropropan-2-yl)carbamoyl)-1-methyl-1H-pyrazol-5-yl)-N^1-((S)-11-oxo-2,3,10,11-tetrahydro-1H,5H-benzo[d]pyrazolo [1,2-a][1,2]diazepin-10-yl)succinamide], for which the results for the IC50 in assay [1] and in assay [2] were 6 nM and 43 nM, respectively.
For `Cc1nc(-c2cncc(F)c2)sc1NC(=O)C[C@@H](C)C(=O)N[C@@H]1C(=O)N2CCCN2Cc2ccccc21` [Example 79, (R)-N^4-(2-(5-fluoropyridin-3-yl)-4-methylthiazol-5-yl)-2-methyl-N^1-((S)-11-oxo-2,3,10,11-tetrahydro-1H,5H-benzo[d]pyrazolo [1,2-a][1,2]diazepin-10-yl)succinamide], in that order: 7 nM and 10 nM.
For `CCc1cc(-c2cc(NC(=O)C[C@@H](C)C(=O)N[C@@H]3C(=O)N4CCCN4Cc4ccccc43)n(C)n2)no1` [Example 81, (R)-N^4-(3-(5-Ethylisoxazol-3-yl)-1-methyl-1H-pyrazol-5-yl)-2-methyl-N^1-((S)-11-oxo-2,3,10,11-tetrahydro-1H,5H-benzo[d]pyrazolo [1,2-a][1,2]diazepin-10-yl)succinamide], in that order: 8 nM and 5 nM.
For `CCn1nc(-c2ccc(C(F)(F)F)nc2)cc1NC(=O)C[C@@H](C)C(=O)N[C@@H]1C(=O)N2CCCN2Cc2ccccc21` [Example 83, (R)-N^4-(1-Ethyl-3-(6-(trifluoromethyl)pyridin-3-yl)-1H-pyrazol-5-yl)-2-methyl-N^1-((S)-11-oxo-2,3,10,11-tetrahydro-1H,5H-benzo[d]pyrazolo [1,2-a][1,2]diazepin-10-yl)succinamide], in that order: 9 nM and 6 nM.
Regarding `C[C@H](CC(=O)Nc1cc(C(=O)NCCC(F)(F)F)nn1C)C(=O)N[C@@H]1C(=O)N2CCCN2Cc2ccccc21` [Example 84, (R)-2-Methyl-N^4-(1-methyl-3-((3,3,3-trifluoropropyl)carbamoyl)-1H-pyrazol-5-yl)-N^1-((S)-11-oxo-2,3,10,11-tetrahydro-1H,5H-benzo[d]pyrazolo [1,2-a][1,2]diazepin-10-yl)succinamide], the figures for the IC50 in assay [1] and in assay [2] were 9 nM and 40 nM, respectively.

For the origin of these results see patent US20230365571A1, “COMPOUNDS AND COMPOSITIONS AS Sppl2a INHIBITORS” (Novartis AG, priority 2020, published 2023).
